According to ChEMBL document CHEMBL1138979, “From pyrroles to pyrrolo[1,2-a]pyrazinones: a new class of mGluR1 antagonists” (Bioorg Med Chem Lett, 2006):

Each compound was assayed against T1, Metabotropic glutamate receptor 1 (Rattus norvegicus, UniProt P23385) (assay: Inhibition of rat mGluR1a in CHO cells by CDP-DAG accumulation method upto 100 uM).
Type: functional, cell-based

T1 sequence (P23385 whole entry): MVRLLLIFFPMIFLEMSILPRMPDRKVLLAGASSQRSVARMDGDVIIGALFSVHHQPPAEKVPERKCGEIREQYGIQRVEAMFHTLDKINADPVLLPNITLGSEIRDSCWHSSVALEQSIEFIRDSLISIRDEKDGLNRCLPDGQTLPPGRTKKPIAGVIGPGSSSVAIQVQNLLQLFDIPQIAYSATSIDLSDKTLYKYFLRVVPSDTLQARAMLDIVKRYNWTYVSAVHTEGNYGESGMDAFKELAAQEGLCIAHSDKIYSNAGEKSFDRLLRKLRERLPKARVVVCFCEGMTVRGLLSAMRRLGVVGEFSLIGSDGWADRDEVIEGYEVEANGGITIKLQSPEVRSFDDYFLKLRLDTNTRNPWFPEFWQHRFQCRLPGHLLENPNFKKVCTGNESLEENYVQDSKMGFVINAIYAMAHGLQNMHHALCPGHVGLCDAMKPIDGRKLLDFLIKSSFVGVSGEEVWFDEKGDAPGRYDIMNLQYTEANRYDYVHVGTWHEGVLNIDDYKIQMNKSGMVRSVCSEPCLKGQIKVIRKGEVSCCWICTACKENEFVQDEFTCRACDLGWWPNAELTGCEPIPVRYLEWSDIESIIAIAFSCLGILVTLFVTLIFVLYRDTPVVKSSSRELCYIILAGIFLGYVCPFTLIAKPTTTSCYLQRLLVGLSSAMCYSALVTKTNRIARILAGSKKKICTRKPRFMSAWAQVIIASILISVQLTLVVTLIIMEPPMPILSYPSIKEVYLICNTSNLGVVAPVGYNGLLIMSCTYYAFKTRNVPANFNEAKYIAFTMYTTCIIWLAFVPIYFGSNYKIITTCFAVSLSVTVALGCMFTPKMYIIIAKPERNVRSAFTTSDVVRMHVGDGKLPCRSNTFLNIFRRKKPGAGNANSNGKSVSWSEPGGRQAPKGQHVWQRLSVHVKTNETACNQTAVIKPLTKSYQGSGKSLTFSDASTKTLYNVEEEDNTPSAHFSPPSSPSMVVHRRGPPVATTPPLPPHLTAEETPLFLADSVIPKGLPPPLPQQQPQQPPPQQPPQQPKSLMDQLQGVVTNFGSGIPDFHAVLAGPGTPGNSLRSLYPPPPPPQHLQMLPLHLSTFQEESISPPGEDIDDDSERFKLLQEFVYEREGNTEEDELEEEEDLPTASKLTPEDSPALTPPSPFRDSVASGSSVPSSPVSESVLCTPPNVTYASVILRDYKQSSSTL

Row | Structure (SMILES) | IC50
1 | Cc1c(C(=O)OC(C)C(C)(C)C)cn2c1C(=O)N(CCCN)CC2 (stereo unspecified) | Not Active
2 | Cc1c(C(=O)OC(C)C(C)(C)C)cn2c1C(=O)NCC2 (stereo unspecified) | Not Active

What follows are compounds tested against T1, Metabotropic glutamate receptor 1 (assay: Inhibition of rat mGluR1a in CHO cells by CDP-DAG accumulation method).
Type: functional, cell-based

Row | Structure (SMILES) | IC50
3 | Cc1c(C(=O)OC(C)C(C)(C)C)cn2c1C(=O)N(CCCN1C(=O)c3ccccc3C1=O)CC2 (stereo unspecified) | 15.8 nM
4 | Cc1c(C(=O)OC(C)C(C)(C)C)cn2c1C(=O)N(CC(F)F)CC2 (stereo unspecified) | 25.1 nM
5 | Cc1c(C(=O)OC(C)C(C)(C)C)cn2c1C(=O)N(CCNC(=O)OC(C)(C)C)CC2 (stereo unspecified) | 398 nM
6 | Cc1c(C(=O)OC(C)C(C)(C)C)cn2c1C(=O)N(CCCNC(=O)c1ccncc1)CC2 (stereo unspecified) | 398 nM
7 | COCCN1CCn2cc(C(=O)OC(C)C(C)(C)C)c(C)c2C1=O (stereo unspecified) | 251 nM
8 | Cc1c(C(=O)OC(C)C(C)(C)C)cn2c1C(=O)N(Cc1ccccc1)CC2 (stereo unspecified) | 251 nM
9 | CC(=O)NCCCN1CCn2cc(C(=O)OC(C)C(C)(C)C)c(C)c2C1=O (stereo unspecified) | 501 nM
10 | Cc1c(C(=O)OC(C)C(C)(C)C)cn2c1C(=O)N(CCF)CC2 (stereo unspecified) | 20 nM
11 | Cc1c(C(=O)OC(C)C(C)(C)C)cn2c1C(=O)N(N1CCOCC1)CC2 (stereo unspecified) | 3160 nM
12 | Cc1c(C(=O)OC(C)C(C)(C)C)cn2c1C(=O)N(CCCN(C)C(=O)c1ccncc1)CC2 (stereo unspecified) | 3160 nM
13 | CCCN1CCn2cc(C(=O)OC(C)C(C)(C)C)c(C)c2C1=O (stereo unspecified) | 39.8 nM
14 | Cc1c(C(=O)OC(C)C(C)(C)C)cn2c1C(=O)N(CC1CC1)CC2 (stereo unspecified) | 20 nM
15 | CCNC(=O)NCCCN1CCn2cc(C(=O)OC(C)C(C)(C)C)c(C)c2C1=O (stereo unspecified) | 398 nM
16 | C=CCN1CCn2cc(C(=O)OC(C)C(C)(C)C)c(C)c2C1=O (stereo unspecified) | 20 nM
